Measurements taken from article PMC9289467, “A Novel Multifunctional 5,6-Dimethoxy-Indanone-Chalcone-Carbamate Hybrids Alleviates Cognitive Decline in Alzheimer’s Disease by Dual Inhibition of Acetylcholinesterase and Inflammation” (Frontiers in Aging Neuroscience, 2022).

Tests used:
Aβ = experiment: MOAB-2 immunofluorescence of Aβ, APP/PS1 mice; assay type: in vivo; settings: cortex and hippocampus; AP5 40 mg/kg once daily 5 months
Experimental: (§1) APP/PS1 mice of ages 6 months were randomly divided into vehicle (APP/PS1, n = 10) and treatment groups (AP5, n = 10), which were intragastrically administered with AP5 (40 mg/kg) once daily for consecutive 5 months. AP5 was dissolved in distilled water containing 1% sodium carboxymethyl cellulose.
The fixed hemibrains were paraffin-embedded and sectioned in the coronal plane. The slices were deparaffinized with xylene and rehydrated by a series of gradient alcohols. Antigen retrieval through microwave boiling was performed with 10 mM sodium citrate solution at pH 6.0. The slices were cooled down to room temperature and then rinsed in PBS solution. Then the slices were incubated in 10% goat serum blocking solution for 1 h followed by primary antibodies overnight at 4°C. The next day, the slides were labeled with biotinylated or fluorescent secondary antibodies. Slices were washed three times with PBS before being mounted. Images were captured using a SpinSR10 scanner (Olympus, Tokyo, Japan). […]
Cambridge, UK) or anti-GFAP (1:100, bs-0199R, Bioss) at4 °C. After being washed with PBS, slides were treated with a biotinylated secondary antibody for 30 min and with streptavidin-peroxidase complex for another 30 min at 37°C. Immunostaining was visualized with 3,3′-diaminobenzidine (DAB, ZL1-9018, Zhongshan Jinqiao, Beijing, China ).The images were acquired using a Nikon microscope (Nikon, […]

TNF-α, IL-6, IL-1β = experiment: ELISA of proinflammatory cytokines, APP/PS1 mice; assay type: in vivo; settings: TBS fraction, AP5 40 mg/kg once daily 5 months
Experimental: as §1
For detecting the pathological soluble or insoluble Aβ in mice, sequential extractions were performed as follows: the half of right hippocampus and cortex from three groups were homogenized in TBS solution containing 5 mM EDTA, phosphatase inhibitor (P1050, Beyotime, Shanghai, China), and protease inhibitor cocktail (P1010, Beyotime) followed by centrifugation at 25,000g at 4°C for 1 h. The supernatant was collected as a TBS fraction and the resulting pellet was solubilized in 70% formic acid (FA), sonicated until the lysis buffer was clear, followed by centrifugation at 25,000g at 4°C for 1 h. The supernatant was collected as the FA fraction and neutralized (1:20) in a neutralization buffer (1 M tris base, 0.5 M Na2HPO4, 0.05% NaN3). Human Aβ40 and Aβ42 were determined by ELISA kits (E-EL-H0452c and E-EL-H0453c, Elabscience, Wuhan, China) in accordance with the manufacturer’s instructions. In addition, the levels of IL-1β (88-7013-88, Invitrogen), IL-6 (EK206HS-96, Multi sciences, HangZhou, China), and TNF-α (88-7324-88, Invitrogen) in TBS fraction were also determined by ELISA.

ThS-positive plaque = experiment: Thioflavin S staining of amyloid plaques, APP/PS1 mice; assay type: in vivo; settings: cortex and hippocampus; AP5 40 mg/kg once daily 5 months
Experimental: as §1
The hemisphere slices were stained with 0.5% fluorescent amyloid dye Thioflavin S (ThS, T1892, Sigma Aldrich) in the dark for 10 min followed by three washes with 50% ethyl alcohol and a final wash in PBS. Image analysis of the number and size of cortical and hippocampal ThS positive plaques was carried out on Image J FIJI software with “analyze particles” function.

Aβ42 oligomers = molecular target: T1, Aβ42 oligomers (Homo sapiens, UniProt P05067); experiment: Aβ42 self-oligomerization dot blot (A11 antibody); assay type: biochemical; settings: oligomer-specific antibody A11
T1 construct: purchased Aladdin A118755
T1 sequence (P05067 672-713 limits assumed): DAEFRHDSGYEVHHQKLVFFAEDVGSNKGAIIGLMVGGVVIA
Experimental: The formation of Aβ40 or Aβ42 oligomers was monitored by dot blot with oligomer-specific antibody. Briefly, the resulting Aβ film was dissolved in ddH2O to form a 100 μM solution, and then the oligomerization reaction ([Kayed et al., 2003]) was initiated in absence or presence of different concentrations of AP5. An aliquot (2 μL) of each solution was dripped on a nitrocellulose membrane. The membrane was blocked with 5% non-fat milk in TBS for 1 h, incubated with the anti-β amyloid (MOAB-2, NBP2-13075SS, Novus Biologicals, Colorado, United States), anti-amyloid oligomers (A11, NBP1-97930, Novus Biologicals), or anti-amyloid fibrils (OC, NBP1-97930, Novus Biologicals) antibodies overnight at 4°C. The membrane was then incubated using HRP-conjugated secondary antibodies at room temperature for 1 h and then developed with ECL.

CCN(C)C(=O)Oc1cccc(/C=C2\Cc3cc(OC)c(OC)cc3C2=O)c1 [AP5, (E)-3-((5,6-dimethoxy-1-oxo-1,3-dihydro-2H-inden-2-ylidene)-methyl)phenylethyl(methyl)carbamate]
area occupied by unaggregated and aggregated Aβ (MOAB-2) (Aβ): also decreased
IL-1β level (TNF-α, IL-6, IL-1β): markedly reduced
IL-6 level (TNF-α, IL-6, IL-1β): markedly reduced
TNF-α level (TNF-α, IL-6, IL-1β): markedly reduced
load of ThS-positive plaque (ThS-positive plaque): pronounced reduction
number of ThS-positive plaque (ThS-positive plaque): pronounced reduction
levels of oligomeric Aβ42 (Aβ42 oligomers): decreased the levels
